Measurements from ChEMBL document CHEMBL5620384, “6-Regioisomeric 5,8-quinolinediones as potent CDC25 inhibitors against colorectal cancers” (Eur J Med Chem, 2023).
The source made the active and inactive calls. No cut-off for these calls is given here.

Tests used:
[1] = test system: U-87 MG; assay: Cytotoxicity against human U-87 MG cells assessed as cell survival measured at 2 uM after 72 hrs by MTS assay relative to control; format: functional, U-87MG ATCC; conditions: read-out: Activity
[2] = test system: DLD-1; assay: Cytotoxicity against human DLD-1 cells assessed as cell survival measured at 2 uM after 72 hrs by MTS assay relative to control; format: functional; conditions: read-out: Activity
[3] = test system: MCF7; assay: Cytotoxicity against human MCF7 cells assessed as cell survival measured at 2 uM after 72 hrs by MTS assay relative to control; format: functional; conditions: read-out: Activity
[4] = test system: SW480; assay: Cytotoxicity against human SW480 cells assessed as cell survival measured at 2 uM after 72 hrs by MTS assay relative to control; format: functional; conditions: read-out: Activity
[5] = test system: MDA-MB-231; assay: Cytotoxicity against human MDA-MB-231 cells assessed as cell survival measured at 2 uM after 72 hrs by MTS assay relative to control; format: functional; conditions: read-out: Activity
[6] = test system: HCT-116; assay: Cytotoxicity against human HCT-116 cells assessed as cell survival measured at 2 uM after 72 hrs by MTS assay relative to control; format: functional; conditions: read-out: Activity
[7] = test system: MDA-MB-231; assay: Cytotoxicity against human MDA-MB-231 cells assessed as growth inhibition after 72 hrs by MTS assay; format: functional, cell-based; conditions: MDA-MB-231, 72 h
[8] = test system: DLD-1; assay: Cytotoxicity against human DLD1 cells assessed as growth inhibition after 72 hrs by MTS assay; format: functional, cell-based; conditions: DLD-1, 72 h
[9] = test system: HCT-116; assay: Induction of apoptosis in human HCT-116 cells assessed as reduction in number of cells at S phase at 1 uM measured after 72 hrs by flow cytometry; format: functional, cell-based
[10] = test system: HCT-116; assay: Suppression of histone H4 methylation at K20 (H4K20me1) in thymidine synchronized human HCT-116 cells at 2 uM measured upto 8 hrs by Western blot analysis; format: functional, cell-based
[11] = test system: HCT-116; assay: Effect on cell cycle progression in thymidine synchronized human HCT-116 cells assessed as suppression of CDK1 dephosphorylation in presence of colchicine at 2 uM by Western blot analysis; format: functional, cell-based
[12] = test system: HCT-116; assay: Induction of DNA damaging in human HCT-116 cells assessed as RPA2 phosphorylation at S4/S8 at 2 uM measured upto 8 hrs by Western blot analysis; format: functional, cell-based
[13] = Cytotoxicity against human MRC5 cells assessed as growth inhibition after 72 hrs by MTS assay; format: toxicity, cell-based
[14] = test system: HCT-116; assay: Induction of apoptosis in human HCT-116 cells assessed as increase in caspase 9 at 1 uM measured after 72 hrs by flow cytometry; format: functional, cell-based
[15] = Cytotoxicity against human HEL 299 cells assessed as growth inhibition after 72 hrs by MTS assay; format: toxicity, cell-based
[16] = test system: DLD-1; assay: Induction of cell cycle arrest in human DLD-1 cells assessed as reduced progression of S phase (T8) at 2 uM measured upto 24 hrs by flow cytometry; format: functional, cell-based
[17] = test system: HCT-116; assay: Induction of apoptosis in human HCT-116 cells assessed as increase in caspase 3 at 1 uM measured after 72 hrs by flow cytometry; format: functional, cell-based
[18] = test system: HCT-116; assay: Induction of apoptosis in human HCT-116 cells assessed as reduction in number of cells at G1 phase at 1 uM measured after 72 hrs by flow cytometry; format: functional, cell-based
[19] = test system: HCT-116; assay: Induction of DNA damaging in human HCT-116 cells assessed as CDK1Y15 dephosphorylation at 2 uM measured upto 8 hrs by Western blot analysis; format: functional, cell-based
[20] = test system: HCT-116; assay: Induction of apoptosis in human HCT-116 cells assessed as increase in number of cells at sub-G1 phase measured after 72 hrs by flow cytometry; format: functional, cell-based; conditions: dose 1-4 µM
[21] = test system: HCT-116; assay: Induction of DNA damaging in human HCT-116 cells assessed as H4K20 methylation at 2 uM measured upto 8 hrs by Western blot analysis; format: functional, cell-based
[22] = test system: HCT-116; assay: Induction of cell cycle arrest in human HCT-116 cells assessed as cells accumulation at S to G2 phase (T6-T8) at 2 uM measured upto 24 hrs by flow cytometry; format: functional, cell-based
[23] = test system: HCT-116; assay: Induction of DNA damaging in human HCT-116 cells assessed as CHK1 phosphorylation at S345 at 2 uM measured upto 8 hrs by Western blot analysis; format: functional, cell-based
[24] = test system: HCT-116; assay: Induction of DNA damaging in human HCT-116 cells assessed as KAP-1 phosphorylation at S824 at 2 uM measured upto 8 hrs by Western blot analysis; format: functional, cell-based
[25] = Cytotoxicity against human M10 cells assessed as growth inhibition after 72 hrs by MTS assay; format: toxicity, cell-based
[26] = test system: HCT-116; assay: Induction of apoptosis in human HCT-116 cells assessed as increase in caspase 8 at 1 uM measured after 72 hrs by flow cytometry; format: functional, cell-based
[27] = Cytotoxicity against human CCD-841CoN cells assessed as growth inhibition after 72 hrs by MTS assay; format: toxicity, cell-based
[28] = test system: HCT-116; assay: Induction of apoptosis in human HCT-116 cells assessed as reduction in number of cells at G2/M phase at 1 uM measured after 72 hrs by flow cytometry; format: functional, cell-based
[29] = test system: HCT-116; assay: Induction of DNA damaging in human HCT-116 cells assessed as RPA2 phosphorylation at S33 at 2 uM measured upto 8 hrs by Western blot analysis; format: functional, cell-based
[30] = test system: HCT-116; assay: Effect on cell cycle progression in thymidine synchronized human HCT-116 cells assessed as prevention of cells entering from mitosis in presence of colchicine at 2 uM by Western blot analysis; format: functional, cell-based
[31] = test system: HCT-116; assay: Induction of DNA damaging in human HCT-116 cells assessed as CHK2 phosphorylation at T68 at 2 uM measured upto 8 hrs by Western blot analysis; format: functional, cell-based
[32] = test system: HCT-116; assay: Induction of apoptosis in human HCT-116 cells assessed as decrease in MCL1 expression at 1 uM measured after 72 hrs by flow cytometry; format: functional, cell-based
[33] = test system: HCT-116; assay: Induction of cell cycle arrest in human HCT-116 cells assessed as cells accumulation at G2/M phase (T10-T24) at 2 uM measured upto 24 hrs by flow cytometry; format: functional, cell-based

Nc1cccc2c1C(=O)C(Cl)=C(NCCN1CCOCC1)C2=O
viability at 2 µM [1]: 95.9%
viability at 2 µM [2]: 91.3%
viability at 2 µM [3]: 98.9%
viability at 2 µM [4]: 96%
viability at 2 µM [5]: 98%
viability at 2 µM [6]: 98%

O=C1C(NCCCN2CCOCC2)=C(Cl)C(=O)c2ncccc21
viability at 2 µM [1]: 51.6%
viability at 2 µM [2]: 34.1%
IC50 [7]: 1.14 µM
IC50 [8]: 1.94 µM
viability at 2 µM [3]: 70.8%
viability at 2 µM [4]: 51.6%
viability at 2 µM [5]: 90.4%
viability at 2 µM [6]: 2.43%

O=C1C(Cl)=C(NCCN2CCOCC2)C(=O)c2cc(Br)ccc21
viability at 2 µM [1]: 86.8%
viability at 2 µM [2]: 10.3%
viability at 2 µM [3]: 105%
viability at 2 µM [4]: 99.7%
viability at 2 µM [5]: 80.3%
viability at 2 µM [6]: 86.8%

O=C1C(Cl)=C(NCCN2CCOCC2)C(=O)c2ccc(I)cc21
viability at 2 µM [1]: 104%
viability at 2 µM [2]: 82.1%
viability at 2 µM [3]: 104%
viability at 2 µM [4]: 111%
viability at 2 µM [5]: 91%
viability at 2 µM [6]: 94.4%

O=C1C(Cl)=C(NCCN2CCOCC2)C(=O)c2cnccc21
viability at 2 µM [1]: 89.3%
viability at 2 µM [2]: 75.1%
viability at 2 µM [3]: 16.4%
viability at 2 µM [4]: 100%
viability at 2 µM [5]: 85.2%
viability at 2 µM [6]: 65.1%

O=C1C(NCCN2CCOCC2)=C(Cl)C(=O)c2ncccc21
viability at 2 µM [1]: 28%
Activity [9]: Active
viability at 2 µM [2]: 1.86%
Activity [10]: Active
Activity [11]: Active
Activity [12]: Active
IC50 at 72 h [13]: > 2 µM
Activity [14]: Active
IC50 [7]: 0.44 µM
IC50 at 72 h [15]: > 2 µM
Activity [16]: Active
Activity [17]: Active
Activity [18]: Active
Activity [19]: Active
Activity [20]: Dose-Dependent Effect
Activity [21]: Active
Activity [22]: Active
IC50 [8]: 0.59 µM
Activity [23]: Active
Activity [24]: Active
IC50 at 72 h [25]: > 2 µM
viability at 2 µM [3]: 36.3%
Activity [26]: Active
IC50 at 72 h [27]: > 2 µM
Activity [28]: Active
Activity [29]: Active
viability at 2 µM [4]: 16.7%
viability at 2 µM [5]: 93.2%
Activity [30]: Active
Activity [31]: Active
Activity [32]: Active
Activity [33]: Active
viability at 2 µM [6]: 0.85%

Nc1ccc2c(c1)C(=O)C(Cl)=C(NCCN1CCOCC1)C2=O
viability at 2 µM [1]: 104%
viability at 2 µM [2]: 90.8%
viability at 2 µM [3]: 81.4%
viability at 2 µM [5]: 99.7%
viability at 2 µM [6]: 88.7%

O=C1C(Cl)=C(NCCN2CCOCC2)C(=O)c2cc([N+](=O)[O-])ccc21
viability at 2 µM [1]: 89.1%
viability at 2 µM [2]: 54.9%
viability at 2 µM [3]: 90.5%
viability at 2 µM [4]: 76.8%
viability at 2 µM [5]: 66.8%
viability at 2 µM [6]: 66%

O=C1C(Cl)=C(NCCN2CCOCC2)C(=O)c2ccc([N+](=O)[O-])cc21
viability at 2 µM [1]: 106%
viability at 2 µM [2]: 97.8%
viability at 2 µM [3]: 106%
viability at 2 µM [4]: 94.2%
viability at 2 µM [5]: 92.9%
viability at 2 µM [6]: 99.7%

O=C1C(Cl)=C(NCCN2CCOCC2)C(=O)c2cc(I)ccc21
viability at 2 µM [1]: 59.3%
viability at 2 µM [2]: 1.7%
viability at 2 µM [3]: 102%
viability at 2 µM [4]: 84.3%
viability at 2 µM [5]: 81.1%
viability at 2 µM [6]: 82.4%

O=C1C(Cl)=C(NCCCCN2CCOCC2)C(=O)c2ncccc21
viability at 2 µM [1]: 81.5%
viability at 2 µM [2]: 77.3%
viability at 2 µM [5]: 88.6%
viability at 2 µM [6]: 53.9%
